Results on two compounds are retold here after PMC12196321, “Discovery of Novel Inhibitors of Aspergillus fumigatus DHODH via Virtual Screening, MD Simulation, and In Vitro Activity Assay” (Molecules, 2025).

The target in the test is T1, Aspergillus fumigatus dihydroorotate dehydrogenase (AfDHODH) (Aspergillus fumigatus, UniProt Q4X169).
T1 construct: gene AFUA_2G11010; residues 89–531 with an N-terminal His-tag
T1 sequence (Q4X169 89-531): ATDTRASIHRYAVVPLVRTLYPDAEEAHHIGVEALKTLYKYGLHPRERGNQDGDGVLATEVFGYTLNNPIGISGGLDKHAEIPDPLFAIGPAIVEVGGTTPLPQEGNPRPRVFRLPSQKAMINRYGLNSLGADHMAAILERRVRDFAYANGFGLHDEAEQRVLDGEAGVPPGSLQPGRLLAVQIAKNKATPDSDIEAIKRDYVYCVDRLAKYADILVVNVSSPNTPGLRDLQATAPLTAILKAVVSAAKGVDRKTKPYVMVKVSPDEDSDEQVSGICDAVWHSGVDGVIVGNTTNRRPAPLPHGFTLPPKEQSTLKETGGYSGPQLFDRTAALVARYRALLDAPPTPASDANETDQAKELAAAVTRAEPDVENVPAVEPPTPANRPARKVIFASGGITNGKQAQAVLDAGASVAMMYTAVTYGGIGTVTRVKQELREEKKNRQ
Description: DCIP colorimetric enzyme assay (absorbance at […] nm). Format: biochemical.

`COC(=O)c1c(NC(=S)NNC(=O)c2ccc(Cl)s2)sc(C(=O)N(C)C)c1C` [CHEMBL1509241]: the IC50 – broadly, the midpoint of a concentration-inhibition curve – turned out to be 16.9 µM.

With `COC(=O)c1c(NC(=S)NNC(=O)c2ccc(Cl)s2)sc(C(=O)N(C)C)c1C` [ZINC67300323], the concentration for half-maximal inhibition (IC50) is 57.3 µM.
